Results as given in ChEMBL document CHEMBL5113526, “Design, Synthesis, and Biological Evaluation of Androgen Receptor Degrading and Antagonizing Bifunctional Steroidal Analogs for the Treatment of Advanced Prostate Cancer” (J Med Chem, 2022).
Activity calls are given as the source filed them. No cut-off for these calls is given here.

Tests used:
LNCaP [1] = assay: Antiproliferative activity against human LNCAP cells assessed as reduction in cell viability at 10 uM measured after 6 days by CellTiterGlo assay relative to control; type: functional; conditions: time 6 day; for inhibition at 10 µM: Homo sapiens, LNCaP
[2] = target: T1, Steroid 17-alpha-hydroxylase/17,20 lyase (Homo sapiens, UniProt P05093); assay: Inhibition of human recombinant CYP17A1 incubated for 5 mins in presence of NADPH by LC-MS/MS analysis; type: ADME
T1 sequence (P05093 whole entry): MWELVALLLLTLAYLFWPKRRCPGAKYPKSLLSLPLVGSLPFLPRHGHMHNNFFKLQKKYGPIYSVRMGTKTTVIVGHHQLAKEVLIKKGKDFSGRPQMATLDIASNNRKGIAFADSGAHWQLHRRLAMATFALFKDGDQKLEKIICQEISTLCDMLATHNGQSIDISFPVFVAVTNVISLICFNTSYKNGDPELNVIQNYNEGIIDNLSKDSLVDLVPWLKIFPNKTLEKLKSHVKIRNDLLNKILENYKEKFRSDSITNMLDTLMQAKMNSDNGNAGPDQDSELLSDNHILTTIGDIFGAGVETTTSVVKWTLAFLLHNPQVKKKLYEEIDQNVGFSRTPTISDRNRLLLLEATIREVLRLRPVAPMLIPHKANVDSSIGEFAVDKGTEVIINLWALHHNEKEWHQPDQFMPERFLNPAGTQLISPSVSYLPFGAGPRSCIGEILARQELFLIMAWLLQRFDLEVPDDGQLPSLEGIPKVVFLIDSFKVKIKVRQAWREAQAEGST

Androgen receptor [3] = target: T2, Androgen receptor (Homo sapiens, UniProt P10275); assay: Antagonist activity at DHT-induced Androgen receptor transcriptional activity in human HEK293 cells measured after 24 hrs by Steady-Glo reagent based assay; type: cell-based
T2 sequence (P10275 whole entry): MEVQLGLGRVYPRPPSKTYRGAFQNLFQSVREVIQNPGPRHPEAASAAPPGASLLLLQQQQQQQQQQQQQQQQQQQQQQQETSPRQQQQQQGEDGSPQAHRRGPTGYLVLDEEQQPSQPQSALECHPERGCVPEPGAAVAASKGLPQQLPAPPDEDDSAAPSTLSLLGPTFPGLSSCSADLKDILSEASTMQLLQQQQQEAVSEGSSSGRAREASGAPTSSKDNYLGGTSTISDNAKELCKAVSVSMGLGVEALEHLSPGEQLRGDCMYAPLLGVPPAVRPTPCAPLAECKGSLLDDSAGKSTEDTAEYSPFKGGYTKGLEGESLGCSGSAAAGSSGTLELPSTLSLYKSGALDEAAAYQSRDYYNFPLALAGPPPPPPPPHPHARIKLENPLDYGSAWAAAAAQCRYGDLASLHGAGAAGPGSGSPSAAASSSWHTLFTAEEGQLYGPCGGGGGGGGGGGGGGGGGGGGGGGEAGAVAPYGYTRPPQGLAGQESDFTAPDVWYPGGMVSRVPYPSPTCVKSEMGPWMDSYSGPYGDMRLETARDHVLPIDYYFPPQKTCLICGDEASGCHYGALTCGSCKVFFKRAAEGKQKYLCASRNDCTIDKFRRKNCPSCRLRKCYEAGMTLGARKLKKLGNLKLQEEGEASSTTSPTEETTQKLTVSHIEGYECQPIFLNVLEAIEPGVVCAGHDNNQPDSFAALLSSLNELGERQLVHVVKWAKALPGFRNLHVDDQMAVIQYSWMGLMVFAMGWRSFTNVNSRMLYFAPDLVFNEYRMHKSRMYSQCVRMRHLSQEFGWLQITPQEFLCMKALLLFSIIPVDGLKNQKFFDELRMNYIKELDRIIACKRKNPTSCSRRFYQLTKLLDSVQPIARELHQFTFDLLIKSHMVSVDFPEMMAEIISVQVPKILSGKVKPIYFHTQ

Androgen receptor [4] = target: T2, Androgen receptor; assay: Induction of AR degradation in human LNCap cells incubated for 24 hrs by sandwich ELISA analysis; type: cell-based
[5] = Terminal half life in Sprague-Dawley rat at 10 mg/kg, po measured up to 24 hrs by LC-MS/MS analysis; type: ADME, organism-based; conditions: in vivo, read-out: beta t1/2 (converted)
[6] = Tmax in Sprague-Dawley rat at 10 mg/kg, po measured up to 24 hrs by LC-MS/MS analysis; type: ADME, organism-based; conditions: in vivo
[7] = Cmax in Sprague-Dawley rat at 10 mg/kg, po measured up to 24 hrs by LC-MS/MS analysis; type: ADME, organism-based; set-up: dose 10 mg/kg, time < 24 hrs, route po; conditions: in vivo
[8] = AUC (0 to t) in Sprague-Dawley rat at 10 mg/kg, po measured up to 24 hrs by LC-MS/MS analysis; type: ADME, organism-based; set-up: time < 24 hrs, dose 10 mg/kg, route po; conditions: in vivo
[9] = target: Voltage-gated inwardly rectifying potassium channel KCNH2 (Homo sapiens, UniProt Q12809); assay: Inhibition of hERG potassium channel at -80 mV holding potential incubated for 3 mins by automated patch clamp method; type: toxicity
Sequence of Voltage-gated inwardly rectifying potassium channel KCNH2 (Q12809 whole entry): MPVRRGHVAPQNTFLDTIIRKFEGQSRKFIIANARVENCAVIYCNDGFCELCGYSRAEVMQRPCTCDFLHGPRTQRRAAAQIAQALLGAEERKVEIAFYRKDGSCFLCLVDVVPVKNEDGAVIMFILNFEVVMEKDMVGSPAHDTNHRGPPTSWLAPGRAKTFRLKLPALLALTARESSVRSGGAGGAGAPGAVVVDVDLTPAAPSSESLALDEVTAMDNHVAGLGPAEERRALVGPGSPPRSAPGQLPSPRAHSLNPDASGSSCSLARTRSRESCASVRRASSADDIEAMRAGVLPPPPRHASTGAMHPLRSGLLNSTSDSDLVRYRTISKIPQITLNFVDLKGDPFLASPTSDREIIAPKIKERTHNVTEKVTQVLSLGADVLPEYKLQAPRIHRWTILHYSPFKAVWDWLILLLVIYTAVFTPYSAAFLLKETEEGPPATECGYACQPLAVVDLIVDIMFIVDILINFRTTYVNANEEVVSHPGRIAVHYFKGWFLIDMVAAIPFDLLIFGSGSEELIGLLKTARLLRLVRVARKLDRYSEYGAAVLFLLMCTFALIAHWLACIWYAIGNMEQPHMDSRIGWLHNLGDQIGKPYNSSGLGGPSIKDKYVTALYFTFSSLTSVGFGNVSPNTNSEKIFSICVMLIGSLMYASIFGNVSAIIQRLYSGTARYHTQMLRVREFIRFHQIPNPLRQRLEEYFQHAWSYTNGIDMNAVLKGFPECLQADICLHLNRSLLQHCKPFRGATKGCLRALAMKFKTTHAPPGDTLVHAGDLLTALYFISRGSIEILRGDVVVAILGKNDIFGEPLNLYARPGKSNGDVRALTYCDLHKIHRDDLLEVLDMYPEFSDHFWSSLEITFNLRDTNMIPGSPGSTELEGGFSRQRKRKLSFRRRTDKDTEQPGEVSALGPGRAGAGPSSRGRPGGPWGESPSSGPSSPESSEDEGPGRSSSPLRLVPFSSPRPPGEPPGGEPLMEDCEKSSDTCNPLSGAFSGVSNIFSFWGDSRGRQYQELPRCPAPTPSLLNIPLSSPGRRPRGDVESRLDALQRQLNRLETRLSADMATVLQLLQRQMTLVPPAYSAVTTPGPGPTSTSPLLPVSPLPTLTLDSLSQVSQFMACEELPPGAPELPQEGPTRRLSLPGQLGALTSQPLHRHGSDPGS

[10] = target: T3, Androgen receptor (Homo sapiens) (UniProt P10275); assay: Induction of AR degradation in human LNCap cells at 20 uM measured after 24 hrs by Western blot analysis; type: cell-based
T3 sequence (whole entry): T2 sequence (P10275 whole entry)

[11] = target: T3, Androgen receptor (Homo sapiens); assay: Induction of AR degradation in human LNCap cells at 20 uM by Western blot analysis; type: cell-based; conditions: time 2-24 hrs, TDE = time-dependent effect
CWR22R [12] = assay: Antiproliferative activity against human 22Rv1 cells expressing AR-v7 assessed as reduction in cell viability measured after 6 days by CTG assay; type: functional, cell-based
CWR22R [13] = assay: Antiproliferative activity against human 22Rv1 cells expressing AR-v7 assessed as reduction in cell viability at 30 uM measured after 6 days by CTG assay; type: functional; conditions: time 6 day
[14] = system: Androgen receptor (Homo sapiens), P10275 [UNDEFINED MUTATION]; assay: Induction of AR-v7 degradation in human 22Rv1 cells incubated for 24 hrs by Western blot analysis; type: cell-based; conditions: dose 1-20 µM, DDE = dose-dependent effect
[15] = Antagonist activity at androgen receptor W741L mutant (unknown origin) expressed in HEK293 cells incubated for 24 hrs by luciferase reporter assay; type: cell-based; conditions: Homo sapiens, HEK293, 24 h
Androgen receptor [16] = target: Androgen receptor (Homo sapiens, UniProt P10275, T878A); assay: Antagonist activity at androgen receptor T877A mutant (unknown origin) expressed in HEK293 cells incubated for 24 hrs by luciferase reporter assay; type: cell-based
Sequence of Androgen receptor (Homo sapiens, UniProt P10275, T878A) (P10275 whole entry T878A): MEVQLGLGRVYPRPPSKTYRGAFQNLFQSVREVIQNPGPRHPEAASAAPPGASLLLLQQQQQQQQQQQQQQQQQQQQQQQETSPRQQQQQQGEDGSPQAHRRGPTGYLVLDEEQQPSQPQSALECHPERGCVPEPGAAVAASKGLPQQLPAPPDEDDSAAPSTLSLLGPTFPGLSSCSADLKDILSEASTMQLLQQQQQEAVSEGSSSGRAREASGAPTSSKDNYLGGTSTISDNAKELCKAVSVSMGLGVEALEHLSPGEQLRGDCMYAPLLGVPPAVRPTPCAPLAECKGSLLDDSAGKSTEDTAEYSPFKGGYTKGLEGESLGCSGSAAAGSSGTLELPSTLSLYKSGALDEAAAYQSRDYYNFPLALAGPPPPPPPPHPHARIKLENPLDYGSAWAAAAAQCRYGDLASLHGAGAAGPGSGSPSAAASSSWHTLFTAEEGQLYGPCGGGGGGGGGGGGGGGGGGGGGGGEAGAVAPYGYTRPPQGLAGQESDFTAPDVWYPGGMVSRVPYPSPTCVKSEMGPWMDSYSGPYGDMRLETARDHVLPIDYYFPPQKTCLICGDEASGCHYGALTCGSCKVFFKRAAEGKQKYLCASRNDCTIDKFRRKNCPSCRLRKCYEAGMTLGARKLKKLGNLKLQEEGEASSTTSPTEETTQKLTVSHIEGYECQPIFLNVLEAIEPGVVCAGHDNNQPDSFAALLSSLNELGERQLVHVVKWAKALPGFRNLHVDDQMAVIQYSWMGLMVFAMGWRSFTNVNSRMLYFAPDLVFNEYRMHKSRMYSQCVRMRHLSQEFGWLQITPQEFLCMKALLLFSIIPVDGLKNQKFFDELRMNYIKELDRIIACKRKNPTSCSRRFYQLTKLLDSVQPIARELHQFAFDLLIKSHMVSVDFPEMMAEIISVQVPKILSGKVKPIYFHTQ

Androgen receptor [17] = target: Androgen receptor (Homo sapiens, UniProt P10275, F877L); assay: Antagonist activity at androgen receptor F876L mutant (unknown origin) expressed in HEK293 cells incubated for 24 hrs by luciferase reporter assay; type: cell-based
Sequence of Androgen receptor (Homo sapiens, UniProt P10275, F877L) (P10275 whole entry F877L): as the sequence (P10275 whole entry T878A) above, with F877L, A878T counted along it

[18] = Inhibition of TP-stimulated andogen-sensitive seminal vesicle growth in castrated Sprague-Dawley rat at 20 mg/kg, po administered for 10 days and measured after 24 hrs last post dose by hershberger assay relative to control; type: functional
[19] = Inhibition of TP-stimulated andogen-sensitive ventral prostate growth in castrated Sprague-Dawley rat at 20 mg/kg, po administered for 10 days and measured after 24 hrs last post dose by hershberger assay relative to control; type: functional; conditions: time 10 day
LNCaP C4-2B = assay: Antitumor activity against enzalutamide-resisitant human C4-2B cells xenografted in castrated BALB/c nude mouse assessed as change in tumor volume at 30 mg/kg, po qd measured after 4 weeks; type: functional
[20] = Toxicity in castrated BALB/c nude mouse xenografted with enzalutamide-resisitant human C4-2B cells assessed as body weight loss at 30 mg/kg, po qd measured after 28 days; type: organism-based, LNCaP C4-2B; conditions: in vivo, 672 h, time 28 day
LNCaP [21] = assay: cells; conditions: Homo sapiens
Description: Antiproliferative activity against human LNCAP cells assessed as reduction in cell viability measured after 6 days by CellTiter-Glo assay

SMILES: Cc1cn(C2=CC[C@H]3[C@@H]4CC=C5C[C@@H](NC(=O)c6ccncc6)CC[C@]5(C)[C@H]4CC[C@]23C)cn1
- inhibition at 10 µM (LNCaP [1]): 99.3%
- IC50 [2]: 2.59 µM
- IC50 (Androgen receptor [3]): 0.247 µM
- DC50 (Androgen receptor [4]): 2.84 µM
- half-life [5]: 2.8 h
- Tmax [6]: 2.17 h
- Cmax [7]: 2670 ng/mL
- AUC(0-t) at 24 h [8]: 24800 ng·h/mL
- IC50 [9]: 6.47 µM
- Activity [10]: Active
- Activity [11]: Tde
- IC50 (CWR22R [12]): 0.59 µM
- inhibition at 30 µM (CWR22R [13]): 37%
- Activity [14]: Dde
- IC50 [15]: 0.49 µM
- IC50 (Androgen receptor [16]): 0.209 µM
- IC50 (Androgen receptor [17]): 0.268 µM
- inhibition in vivo at 20 mg/kg ([18]; Rattus norvegicus, Sprague-Dawley, 576 h): 62%
- inhibition in vivo at 20 mg/kg ([19]; Rattus norvegicus, Sprague-Dawley, 240 h): 66%
- T/C (LNCaP C4-2B): -14%
- Activity [20]: Non-Toxic
- IC50 (LNCaP [21]): 0.205 µM

SMILES: CNC(=O)c1ccc(N2C(=S)N(c3ccc(C#N)c(C(F)(F)F)c3)C(=O)C2(C)C)cc1F [ENZALUTAMIDE]
- inhibition (INH) (LNCaP [1]): 68.83%
- inhibition (INH) [18]: 67%
- inhibition (INH) [19]: 67%

SMILES: C[C@]12CC[C@H](NC(=O)c3ccncc3)CC1=CC[C@@H]1[C@@H]2CC[C@]2(C)C(n3ccnc3)=CC[C@@H]12
- inhibition at 10 µM (LNCaP [1]): 97%
- IC50 (Androgen receptor [3]): 0.511 µM
- half-life [5]: 10 h
- Tmax [6]: 2 h
- Cmax [7]: 4500 ng/mL
- AUC(0-t) at 24 h [8]: 28800 ng·h/mL
- IC50 [9]: 4.99 µM
- IC50 (LNCaP [21]): 0.317 µM
